Molecular target: T1, COX-1 (Homo sapiens, UniProt P23219)
T1 construct: gene PTGS1; pure human recombinant enzyme (h-COX-1)
Experiment: colorimetric TMPD oxidation assay with purified human COX-1, arachidonic acid substrate
Type: biochemical

T1 sequence (P23219 24-599): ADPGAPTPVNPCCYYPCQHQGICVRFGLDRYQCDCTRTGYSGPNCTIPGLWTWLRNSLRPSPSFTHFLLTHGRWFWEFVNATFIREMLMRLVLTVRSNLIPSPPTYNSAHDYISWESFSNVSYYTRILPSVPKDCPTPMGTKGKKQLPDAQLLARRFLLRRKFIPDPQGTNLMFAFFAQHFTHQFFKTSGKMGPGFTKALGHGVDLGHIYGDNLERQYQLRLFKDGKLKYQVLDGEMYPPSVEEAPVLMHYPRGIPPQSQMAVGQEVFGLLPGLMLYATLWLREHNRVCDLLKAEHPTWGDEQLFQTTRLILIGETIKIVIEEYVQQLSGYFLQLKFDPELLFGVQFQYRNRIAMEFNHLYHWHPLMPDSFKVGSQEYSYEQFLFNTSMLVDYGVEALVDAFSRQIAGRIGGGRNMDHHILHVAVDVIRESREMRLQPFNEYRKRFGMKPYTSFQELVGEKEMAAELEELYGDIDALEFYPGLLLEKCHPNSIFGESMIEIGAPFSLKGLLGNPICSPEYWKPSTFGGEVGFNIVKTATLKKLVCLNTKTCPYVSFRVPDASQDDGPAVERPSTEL

Compound `O=c1ccc2cc(O[C@@H]3O[C@H](CO)[C@@H](O)[C@H](O)[C@H]3O)c(O)cc2o1` [a, 7-hydroxy-6-[(2 S, 3 R, 4 S, 5 S, 6 R)-3,4,5-trihydroxy-6-(hydroxymethyl)oxane-2-yl] oxychromen-2-one] has an IC50 of 4.49 mM.

— paper PMC8161015, “Antiplatelet Activity of Coumarins: In Vitro Assays on COX-1” (Molecules, 2021)
